For 18 compounds, IC50 results are on record in patent US6071903A, “2,3,4,5-tetrahydro-1H-[1,4]-benzodiazepine-3-hydroxyamic acids” (American Cyanamid Company, priority 1999, dated 2000).

Each structure is given as a SMILES string.

Holding throughout (format): biochemical
One assay deals with T1, MMP-1 (Homo sapiens, UniProt P03956).
T1 construct: human recombinant fibroblast collagenase (truncated, mw=18,828)
T1 sequence (P03956 100-269 limits assumed): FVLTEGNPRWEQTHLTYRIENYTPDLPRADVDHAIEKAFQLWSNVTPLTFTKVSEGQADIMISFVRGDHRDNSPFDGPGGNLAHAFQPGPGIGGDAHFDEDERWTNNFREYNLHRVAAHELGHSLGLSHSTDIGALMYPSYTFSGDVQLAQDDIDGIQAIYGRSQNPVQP
Briefly: In Vitro Collagenase Assay (MMP-1). As to conditions: human recombinant fibroblast collagenase. The text has this:
In Vitro Collagenase Assay
This assay was based on the cleavage of a peptide substrate ((Dnp-Pro-Cha-Gly-Cys(Me)-His-Ala-Lys(NMa)-NH2), available from Peptide International, Inc.) by collagenase releasing the fluorescent NMa group which was quantitated on the fluorometer as disclosed in Bickett et al., "A High Throughput Fluorogenic Substrate for Interstitial Collagenase (MMP-1) and Gelatinase (MMP-9)", Anal. Biochem., 212:58-64, (1993). Dnp quenches the NMa fluorescence in the intact substrate.
The assay was run in HCBC assay buffer (50 mM HEPES, pH 7.0, 5 mM Ca^+2, 0.02% Brij, 0.5% Cysteine), with human recombinant fibroblast collagenase (truncated, mw=18,828. from Wyeth-Ayerst Research, Radnor, Pa.). The substrate was dissolved in methanol and stored frozen in 1 mM aliquots. Collagenase was stored frozen in buffer in 25 μM aliquots. In conducting the assay, the substrate was dissolved in HCBC buffer to a final concentration of 10 μM and collagenase to a final concentration of 5 nM. The compounds being examined were dissolved in methanol, DMSO, or HCBC. The methanol and DMSO were diluted in HCBC to <1.0%. The compounds were added to a 96 well plate containing enzyme and the reaction was started by the addition of substrate.
The reaction was read (excitation 340 nm, emission 444 nm) for 10 min. and the increase in fluorescence over time was plotted as a linear line. The slope of the line was calculated representing the reaction rate. The linearity of the reaction rate was confirmed (r^2 >0.85). The mean (x±sem) of the control rate was calculated and compared for statistical significance (p<0.05) with drug-treated rates using Dunnett's multiple comparison test.

For another assay, the target named is MMP-9 (Homo sapiens, UniProt P14780). Briefly: In Vitro Gelatinase Assay (MMP-9). As to conditions: human neutrophil gelatinase B. The procedure:
The enzyme activity is measured by the rate of the color increase. The thiopeptide substrate was made up fresh as a 20 mM stock in 100% DMSO and the DTNB was dissolved in 100% DMSO as a 100 mM stock and stored in the dark at room temperature. The substrate and the DTNB were diluted together to 1 mM with substrate buffer (50 mM HEPES, pH 7.5, 5 mM CaCl2) before use. […] The assay buffer, enzyme. […] The increase in OD405 was plotted and the slope of the line was calculated. The slope represents the reaction rate.

For the next assay, the target named is MMP-13 (Homo sapiens, UniProt P45452). Briefly: MMP-13 inhibition (Table 1). As to conditions: read-out: IC50 (nM) MMP-13.
The next assay addresses T2, TACE (Homo sapiens, UniProt P78536).
T2 construct: purchased Immunex
Nature of the assay: Procedure for Measuring TACE Inhibition. The method, then: Procedure for Measuring TACE Inhibition
The plates were incubated for 10 minutes at room temperature. The reaction was initiated by addition of a fluorescent peptidyl substrate (final concentration 100 μM) to each well with shaking on a shaker for 5 sec.
The reaction was read (excitation 340 nm, emission 420 nm) for 10 min. and the increase in fluorescence over time was plotted as a linear line. The slope of the line was calculated and this represents the reaction rate. […] The mean (x±sem) of the control rate was calculated and compared for statistical significance (p<0.05) with drug-treated rates using Dunnett's multiple comparison test.

Sequence of MMP-9 (P14780 94-707): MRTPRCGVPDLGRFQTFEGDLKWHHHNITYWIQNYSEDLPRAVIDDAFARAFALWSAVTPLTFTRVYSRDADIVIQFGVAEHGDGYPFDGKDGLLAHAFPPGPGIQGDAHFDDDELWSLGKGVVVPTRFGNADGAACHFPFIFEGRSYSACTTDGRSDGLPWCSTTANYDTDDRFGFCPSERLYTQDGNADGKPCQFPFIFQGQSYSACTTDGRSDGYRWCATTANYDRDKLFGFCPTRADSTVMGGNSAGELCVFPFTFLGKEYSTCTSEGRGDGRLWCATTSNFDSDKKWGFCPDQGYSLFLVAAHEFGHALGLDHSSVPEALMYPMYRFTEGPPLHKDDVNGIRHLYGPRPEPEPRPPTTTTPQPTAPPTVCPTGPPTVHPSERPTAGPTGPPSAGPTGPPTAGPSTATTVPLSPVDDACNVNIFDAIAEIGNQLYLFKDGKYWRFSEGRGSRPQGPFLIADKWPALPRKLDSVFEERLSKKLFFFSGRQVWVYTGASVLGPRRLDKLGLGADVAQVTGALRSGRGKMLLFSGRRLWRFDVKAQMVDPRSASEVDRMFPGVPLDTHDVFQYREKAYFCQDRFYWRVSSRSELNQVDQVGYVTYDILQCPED
T2 sequence (P78536 215-824): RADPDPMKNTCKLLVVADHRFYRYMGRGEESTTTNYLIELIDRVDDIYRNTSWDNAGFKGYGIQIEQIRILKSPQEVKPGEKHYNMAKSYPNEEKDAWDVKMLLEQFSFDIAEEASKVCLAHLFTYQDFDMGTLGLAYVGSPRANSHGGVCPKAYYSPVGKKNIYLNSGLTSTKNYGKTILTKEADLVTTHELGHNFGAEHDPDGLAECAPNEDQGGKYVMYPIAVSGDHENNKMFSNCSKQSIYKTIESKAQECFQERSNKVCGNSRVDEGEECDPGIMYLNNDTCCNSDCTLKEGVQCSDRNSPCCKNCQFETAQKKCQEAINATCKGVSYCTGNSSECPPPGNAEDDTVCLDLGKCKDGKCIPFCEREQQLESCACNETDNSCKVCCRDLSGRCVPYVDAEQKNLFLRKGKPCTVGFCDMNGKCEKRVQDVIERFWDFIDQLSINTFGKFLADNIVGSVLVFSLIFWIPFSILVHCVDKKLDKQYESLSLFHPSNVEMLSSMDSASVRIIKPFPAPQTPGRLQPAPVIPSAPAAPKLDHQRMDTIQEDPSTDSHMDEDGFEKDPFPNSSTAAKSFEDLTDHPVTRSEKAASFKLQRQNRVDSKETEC

In the case of `COc1ccc(S(=O)(=O)N2Cc3ccccc3N(C(=O)c3cccc(C(F)(F)F)c3)CC2C(=O)NO)cc1` (centres unmarked) [Example 1, 4-(4-Methoxybenzenesulfonyl)-1-(3-trifluoromethylbenzoyl)-2,3,4,5-tetrahydro-1H-[1,4]-benzodiazepine-3-carboxylic acid, Hydroxyamide], the IC50 on MMP-1 amounted to 96.2 nM; against MMP-9 it was 5.1 nM; on MMP-13, 3.7 nM; against TACE, 352 nM.
As to `COc1ccc(S(=O)(=O)N2Cc3ccccc3N(S(=O)(=O)c3ccc(C)cc3)CC2C(=O)NO)cc1` (centres unmarked) [Example 2, 4-(4-Metboxybenzenesulfonyl)-1-(4-methylphenylsulfonyl)-2,3,4,5-tetrahydro-1H-[1,4]benzodiazepine-3-carboxylic acid, Hydroxyamide], the IC50 against MMP-9 was 14.1 nM; at MMP-13, 5.1 nM; against TACE it was 391 nM.
As to `COc1ccc(S(=O)(=O)N2Cc3ccccc3N(S(C)(=O)=O)CC2C(=O)NO)cc1` (centres unmarked) [Example 3, 1-Methanesulfonyl-4-(4-methoxybenzenesulfonyl)-2,3,4,5-tetrahydro-1H-[1,4]benzodiazepine-3-carboxylic acid, Hydroxyamide], the IC50 on MMP-1 came to 156 nM; at MMP-9, 7.9 nM; at MMP-13 it was 3 nM; against TACE it was 104 ± 8 nM.
For `COc1ccc(S(=O)(=O)N2CC(C(=O)NO)N(S(=O)(=O)c3ccc(OC)cc3)Cc3ccccc32)cc1` (centres unmarked) [Example 4, 1,4-Bis-(4-Methoxybenzenesulfonyl)-2,3,4,5-tetrahydro-1H-[1,4]benzodiazepine-3-carboxylic acid, Hydroxyamide] the same measures were 224 nM, 12.2 nM, 4.3 nM and 101 ± 3 nM.
Take `COc1ccc(S(=O)(=O)N2Cc3ccccc3N(C(=O)c3ccccc3)CC2C(=O)NO)cc1` (centres unmarked) [Example 5, 1-Benzoyl-4-(4-methoxybenzenesulfonyl)-2,3,4,5-tetrahydro-1H-[1,4]benzodiazepine-3-carboxylic acid, Hydroxyamide]: the IC50 is 0.56 nM against MMP-9, 0.4 nM at MMP-13 and 95 ± 10 nM at TACE.
As for `COc1ccc(S(=O)(=O)N2Cc3ccccc3N(C(C)=O)CC2C(=O)NO)cc1` (centres unmarked) [Example 6, 1-Acetyl-4-(4-methoxybenzenesulfonyl)-2,3,4,5-tetrahydro-1H-[1,4]benzodiazepine-3-carboxylic acid, Hydroxyamide], the IC50 amounted to 18.4 nM at MMP-1, 1.4 nM against MMP-9, 1 nM at MMP-13 and 103 nM against TACE.
For `COc1ccc(S(=O)(=O)N2Cc3ccccc3N(C(=O)c3cccnc3)CC2C(=O)NO)cc1` (centres unmarked) [Example 7, 4-(4-Methoxybenzenesulfonyl)-1-(3-pyridinylcarbonyl)-2,3,4,5-tetrahydro-1H-[1,4]benzodiazepine-3-carboxylic acid, Hydroxyamide], the IC50 turned out to be 20.4 nM on MMP-1, 0.6 nM at MMP-9, 0.4 nM at MMP-13 and 77.7 nM on TACE.
Consider `COc1ccc(S(=O)(=O)N2Cc3ccccc3N(C(=O)c3cccs3)CC2C(=O)NO)cc1` (centres unmarked) [Example 8, 4-(4-Methoxybenzenesulfonyl)-1-(2-thienylcarbonyl)-2,3,4,5-tetrahydro-1H-[1,4]benzodiazepine-3-carboxylic acid, Hydroxyamide], for which the results for the IC50 on MMP-1 and at MMP-13 were 19.7 nM and 1.1 nM, respectively.
`COCC(=O)N1CC(C(=O)NO)N(S(=O)(=O)c2ccc(OC)cc2)Cc2ccccc21` (centres unmarked) [Example 9, 1-Methoxyacetyl-4-(4-methoxybenzenesulfonyl)-2,3,4,5-tetrahydro-1H-[1,4]benzodiazepine-3-carboxylic acid, Hydroxyamide]: the IC50 is 34.1 nM on MMP-1, 1.34 nM against MMP-9, 1.19 nM on MMP-13 and 95.2 nM on TACE.
For `CCCS(=O)(=O)N1CC(C(=O)NO)N(S(=O)(=O)c2ccc(OC)cc2)Cc2ccccc21` (centres unmarked) [Example 10, 4-(4-Methoxybenzenesulfonyl)-1-(propane-1-sulfonyl)-2,3,4,5-tetrahydro-1H-[1,4]benzodiazepine-3-carboxylic acid, Hydroxyamide] the same measures were 183 nM, 7 nM, 2.8 nM and 91 ± 10 nM.
For `COc1ccc(S(=O)(=O)N2Cc3ccccc3N(C(=O)c3cc(F)ccc3C)CC2C(=O)NO)cc1` (centres unmarked) [Example 11, 4-(4-Methoxybenzenesulfonyl)-1-(2-methyl-5-fluorobenzoyl)-2,3,4,5-tetrahydro-1H-[1,4]benzodiazepine-3-carboxylic acid, Hydroxyamide] the same measures were 55.4 nM, 3.9 nM, 2.3 nM and 271 nM.
On to `COc1ccc(S(=O)(=O)N2Cc3ccccc3N(C(=O)CCc3ccccc3)CC2C(=O)NO)cc1` (centres unmarked) [Example 12, 4-(4-Methoxybenzenesulfonyl)-1-(3-phenylpropionyl)-2,3,4,5-tetrahydro-1H-[1,4]benzodiazepine-3-carboxylic acid, Hydroxyamide], for which the values for the IC50 on MMP-1, against MMP-9 and against TACE were 523 nM, 17.9 nM and 207 nM, respectively.
In the case of `COc1ccc(S(=O)(=O)N2Cc3ccccc3N(C(=O)c3ccncc3)CC2C(=O)NO)cc1` (centres unmarked) [Example 13, 4-(4-Methoxybenzenesulfonyl)-1-(4-pyridinylcarbonyl)-2,3,4,5-tetrahydro-1H-[1,4]benzodiazepine-3-carboxylic acid, Hydroxyamide], the IC50 worked out at 54.9 nM on MMP-1, 9.8 nM against MMP-9, 2 nM on MMP-13 and 154 nM on TACE.
On to `COc1ccc(S(=O)(=O)N2Cc3ccccc3N(C(=O)c3ccccc3-c3ccccc3)CC2C(=O)NO)cc1` (centres unmarked) [Example 14, 1-([1,1'-Biphenyl]-2-carbonyl)-4-(4-methoxybenzenesulfonyl)-2,3,4,5-tetrahydro-1H-[1,4]benzodiazepine-3-carboxylic acid, Hydroxyamide], for which the results for the IC50 at MMP-1, at MMP-9 and at MMP-13 were 542 nM, 12.6 nM and 3.7 nM, respectively.
`COc1ccc(S(=O)(=O)N2Cc3ccccc3N(C(=O)c3ccc(Cl)cc3Cl)CC2C(=O)NO)cc1` (centres unmarked) [Example 31, 1-(2,4-Dichlorobenzoyl)-4-(4-methoxybenzenesulfonyl)-2,3,4,5-tetrahydro-1H-[1,4]benzodiazepine-3-carboxylic acid, Hydroxyamide]: the IC50 at MMP-1 amounted to 75.5 nM; against MMP-9, 3 nM; on MMP-13, 2.6 nM.
`COc1ccc(S(=O)(=O)N2Cc3ccccc3N(C(=O)C3CC3)CC2C(=O)NO)cc1` (centres unmarked) [Example 55, 1-(Cyclopropylcarbonyl)-4-(4-methoxybenzenesulfonyl)-2,3,4,5-tetrahydro-1H-[1,4]benzodiazepine-3-carboxylic acid, Hydroxyamide]: the IC50 was 171 nM on MMP-1, 4 nM against MMP-9 and 68.5 nM on TACE.
Consider `COc1ccc(S(=O)(=O)N2Cc3ccccc3N(C(=O)C3CCCCC3)CC2C(=O)NO)cc1` (centres unmarked) [Example 57, 1-(Cyclohexylcarbonyl)-4-(4-methoxybenzenesufonyl)-2,3,4,5-tetrahydro-1H-[1,4]benzodiazepine-3-carboxylic acid, Hydroxyamide], for which the IC50 was found to be 465 nM at MMP-1, 12.7 nM on MMP-9 and 318 nM on TACE.
As to `COCCN1CC(C(=O)NO)N(S(=O)(=O)c2ccc(OC)cc2)Cc2ccccc21` (centres unmarked) [Example 62, 4-(4-Methoxybenzenesulfonyl)-1-(2-methoxyetbyl)-2,3,4,5-tetrahydro-1H-[1,4]benzodiazepine-3-carboxylic acid, Hydroxyamide], the half-maximal inhibitory concentration (IC50) was 1000 nM at MMP-1, 100 nM against MMP-9 and 100 nM at MMP-13.
